Reference: patent US9353090B2, “Heterocyclic carboxylic acids as activators of soluble guanylate cyclase” (Boehringer Ingelheim International GmbH, priority 2014, dated 2016)
In brackets after ≈: the same amount, converted by molar mass.

How the values were obtained:
[1] = Human liver microsome (HLM) metabolic stability assay; type: in vitro ADME; details: human liver microsomes
Outline: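 Remaining parent measured by LC/MS/MS (ESI, MRM) at 5, 15, 30 and 60 min relative to 0 min. Incubation: 1 uM compound, HLMs, NADPH-started, 37° C., 60 min total, single replicate. Slope of ln(% remaining) gives t1/2 = 0.693/slope, then CLint, CLh and % Qh.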

physchem = details: kinetic from dmso stock
[2] = molecular target: human soluble guanylate cyclase alpha 1 and beta 1 subunits (sGC) (Homo sapiens (Human), UniProt Q02108+Q02153); assay: sGC cellular activator assay (cGMP, HTRF), in the presence and absence of 50% human serum; type: cell-based; details: CHO cells stably expressing human sGC alpha 1/beta 1, preincubated with 40 microM ODQ; cGMP by HTRF; Table 2 does not state whether with or without 50% human serum
Sequence of human soluble guanylate cyclase alpha 1 and beta 1 subunits (sGC) (Q02108 whole entry partner): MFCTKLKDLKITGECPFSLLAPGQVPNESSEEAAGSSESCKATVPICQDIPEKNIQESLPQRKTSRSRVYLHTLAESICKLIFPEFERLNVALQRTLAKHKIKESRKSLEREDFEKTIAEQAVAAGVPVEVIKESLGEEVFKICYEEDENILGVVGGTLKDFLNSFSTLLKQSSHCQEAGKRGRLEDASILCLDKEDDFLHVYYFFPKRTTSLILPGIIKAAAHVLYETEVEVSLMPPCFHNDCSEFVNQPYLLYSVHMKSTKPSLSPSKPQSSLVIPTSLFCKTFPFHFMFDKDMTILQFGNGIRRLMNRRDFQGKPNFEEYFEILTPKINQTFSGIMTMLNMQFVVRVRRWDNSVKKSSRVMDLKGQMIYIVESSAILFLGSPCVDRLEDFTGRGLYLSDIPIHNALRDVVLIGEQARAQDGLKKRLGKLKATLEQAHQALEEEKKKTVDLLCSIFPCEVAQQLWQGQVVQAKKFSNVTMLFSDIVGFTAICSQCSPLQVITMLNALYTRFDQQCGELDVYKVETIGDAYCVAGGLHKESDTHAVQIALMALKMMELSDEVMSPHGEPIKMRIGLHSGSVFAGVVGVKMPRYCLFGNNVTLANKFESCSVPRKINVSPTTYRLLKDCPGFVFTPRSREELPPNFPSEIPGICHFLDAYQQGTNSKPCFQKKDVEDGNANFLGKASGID
Sequence of human soluble guanylate cyclase alpha 1 and beta 1 subunits (sGC) (Q02153 whole entry): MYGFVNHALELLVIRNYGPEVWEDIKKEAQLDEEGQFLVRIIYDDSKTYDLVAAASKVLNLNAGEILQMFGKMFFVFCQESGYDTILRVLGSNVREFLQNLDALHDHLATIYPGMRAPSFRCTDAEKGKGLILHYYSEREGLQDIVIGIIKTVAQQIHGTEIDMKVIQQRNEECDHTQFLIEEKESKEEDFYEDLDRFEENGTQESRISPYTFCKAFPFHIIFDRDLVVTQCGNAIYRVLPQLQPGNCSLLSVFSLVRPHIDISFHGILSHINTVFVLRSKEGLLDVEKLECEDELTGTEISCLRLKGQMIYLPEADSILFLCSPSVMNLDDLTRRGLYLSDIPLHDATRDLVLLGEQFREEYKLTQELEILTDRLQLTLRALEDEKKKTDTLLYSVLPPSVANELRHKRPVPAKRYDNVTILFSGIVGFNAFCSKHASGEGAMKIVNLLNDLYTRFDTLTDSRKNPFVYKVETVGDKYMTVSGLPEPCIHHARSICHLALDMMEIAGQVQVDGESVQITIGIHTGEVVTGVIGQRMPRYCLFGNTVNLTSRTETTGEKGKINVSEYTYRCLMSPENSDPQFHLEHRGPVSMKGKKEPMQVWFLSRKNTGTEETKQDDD
Outline: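 First, CHO-sGC (human α1β1) cells get 1 h ODQ at 40 microM with IBMX and 0.1% BSA. Finally, cGMP is quantified by HTRF and EC50 computed.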

[3] = pH 2.2, aqueous buffer, Solubility (pH 2.2)
[4] = pH 4.5, aqueous buffer, Solubility (pH 4.5)
[5] = pH 6.8, aqueous buffer, Solubility (pH 6.8)

Row | SMILES | Metabolic stability (Qh %), % hepatic blood flow [1] [%] | solubility at 24 h (physchem; [3]) [µg/mL] | solubility at 24 h (physchem; [4]) [µg/mL] | solubility at 24 h (physchem; [5]) [µg/mL] | EC50 [2] [nM]
1 | Cc1cc(COc2c(C)cccc2-c2csc(N3C[C@@H]4C[C@]4(C(=O)O)C3)n2)cc2c1CN(C1CCOCC1)CC2 [Compound 140] | <24 | 100 (≈ 179 µM) | 73 (≈ 130 µM) | 60 (≈ 107 µM) | 5
2 | CO[C@H]1CN(c2nc(-c3cccc(C)c3OCc3cc(C)c4c(c3)CCN(C3CCOCC3)C4)cs2)CC[C@H]1C(=O)O [Compound 167] | <24 | 110 (≈ 186 µM) | 84 (≈ 142 µM) | 82 (≈ 139 µM) | 10
3 | CO[C@@H]1CN(c2cccc(-c3cc(C)ccc3OCc3ccc4c(c3C)CCN(C3CCOCC3)C4)n2)CC[C@@H]1C(=O)O [Compound 75] | <24 | 120 (≈ 205 µM) | 110 (≈ 188 µM) | 74 (≈ 126 µM) | 15
4 | COC[C@H]1N(c2cccc(-c3cc(C)ccc3OCc3ccc4c(c3C)CCN(C3CCOCC3)C4)n2)C[C@@H]2C[C@@]21C(=O)O [Compound 218] | <24 | 144 (≈ 241 µM) | 139 (≈ 233 µM) | 134 (≈ 224 µM) | 81
5 | CCO[C@@H]1CN(c2nc(-c3cccc(C)c3OCc3cc(OC)c4c(c3F)CCN(C3CCOCC3)C4)cs2)CC[C@@H]1C(=O)O [Compound 270] | 38 | 114 (≈ 179 µM) | 73.4 (≈ 115 µM) | 64 (≈ 100 µM) | 2
6 | COC[C@H]1N(c2cccc(-c3cccc(Cl)c3OCc3cc(C)c4c(c3)CCN(C3CCOCC3)C4)n2)C[C@@H]2C[C@@]21C(=O)O [Compound 221] | <24 | 155 (≈ 251 µM) | 144 (≈ 233 µM) | 132 (≈ 213 µM) | 12
7 | CO[C@H]1CN(c2nc(-c3cc(C)ccc3OCc3ccc4c(c3C)CCN(C3CCOCC3)C4=O)cs2)CC[C@H]1C(=O)O [Compound 203] | <24 | 56.8 (≈ 93.8 µM) | 0.1 (≈ 0.165 µM) | 1.6 (≈ 2.64 µM) | 33
8 | CCO[C@@H]1CN(c2cccc(-c3cccc(C)c3OCc3ccc4c(c3C)CCN(C3CCOCC3)CC4)n2)CC[C@@H]1C(=O)O [Compound 239] | 87 | 126 (≈ 205 µM) | 123 (≈ 200 µM) | 117 (≈ 191 µM) | 5
9 | Cc1cc(COc2c(C)cccc2-c2csc(N3CC[C@@]4(C(=O)O)C[C@H]4C3)n2)c(C)c2c1CN(CC1COCCO1)CC2 (stereo partly drawn) [Compound 98] | 48 | 120 (≈ 199 µM) | 75 (≈ 124 µM) | 31 (≈ 51.3 µM) | 1
10 | COC[C@H]1N(c2cccc(-c3cccc(C)c3OCc3ccc4c(n3)CCN(C3CCOCC3)C4)n2)C[C@@H]2C[C@@]21C(=O)O [Compound 318] | <24 | 151 (≈ 258 µM) | 123 (≈ 211 µM) | 73.7 (≈ 126 µM) | 739
11 | CO[C@H]1CN(c2nc(-c3cccc(C)c3OCc3ccc4c(c3C)CCN(C3COC3)C4)cs2)CC[C@H]1C(=O)O [Compound 166] | <24 | 110 (≈ 195 µM) | 74 (≈ 131 µM) | 82 (≈ 145 µM) | 17
12 | Cc1cc(COc2c(C)cccc2-c2csc(N3CC[C@@]4(C(=O)O)C[C@H]4C3)n2)c(C)c2c1CN(C1CCOC1)CC2 (stereo partly drawn) [Compound 100] | 55 | 130 (≈ 227 µM) | 68 (≈ 119 µM) | 27 (≈ 47.1 µM) | 3
13 | CO[C@H]1CN(c2cccc(-c3cccc(C)c3OCc3cc(F)c4c(c3)CCN(C3COC3)CC4)n2)CC[C@H]1C(=O)O [Compound 274] | <24 | 114 (≈ 198 µM) | 72 (≈ 125 µM) | 65.5 (≈ 114 µM) | 4
14 | Cc1ccc(OCc2cc(C)c3c(c2C)CCN(C2CCOCC2)C3)c(-c2csc(N3CC[C@@]4(C(=O)O)C[C@H]4C3)n2)c1 [Compound 125] | <24 | 140 (≈ 238 µM) | 20 (≈ 34 µM) | 1.2 (≈ 2.04 µM) | 23
15 | Cc1cccc(-c2csc(N3C[C@@H]4C[C@]4(C(=O)O)C3)n2)c1OCc1ccc2c(c1C)CCN(C1CCOCC1)CC2 [Compound 144] | <24 | 110 (≈ 192 µM) | 74 (≈ 129 µM) | 62 (≈ 108 µM) | 10
16 | COC[C@H]1N(c2cccc(-c3cccc(C(F)(F)F)c3OCc3cc(C)c4c(c3)CCN(C3COC3)C4)n2)C[C@@H]2C[C@@]21C(=O)O [Compound 227] | 30 | 142 (≈ 228 µM) | 128 (≈ 205 µM) | 138 (≈ 221 µM) | 9
17 | COC[C@H]1N(c2cccc(-c3cccc(C)c3OCc3cc(F)c4c(c3)CCN(C3CCOCC3)C4)n2)C[C@@H]2C[C@@]21C(=O)O [Compound 216] | 39 | 144 (≈ 240 µM) | 139 (≈ 231 µM) | 134 (≈ 223 µM) | 14
18 | COCc1cc(COc2c(C)cccc2-c2cccc(N3CC[C@H](C(=O)O)[C@H](OC)C3)n2)cc2c1CN(C1COC1)CC2 [Compound 285] | <24 | 146 (≈ 248 µM) | 111 (≈ 188 µM) | 97.6 (≈ 166 µM) | 359
19 | O=C(O)[C@@]12CCN(c3cccc(-c4ccccc4OCc4ccc5c(c4)CCN(C4CCOCC4)C5)n3)C[C@@H]1C2 [Compound 1, (1R,6S)-3-(6-{2-[2-(Tetrahydro-pyran-4-yl)-1,2,3,4-tetrahydro-isoquinolin-6-ylmethoxy]-phenyl}-pyridin-2-yl)-3-aza-bicyclo[4.1.0]heptane-6-carboxylic acid] | <24 | 140 (≈ 259 µM) | 120 (≈ 222 µM) | 57 (≈ 106 µM) | 7
20 | Cc1cccc(-c2cccc(N3CC[C@@]4(C(=O)O)C[C@H]4C3)n2)c1OCc1ccc2c(c1)CCN(C1CCOCC1)C2 [Compound 13] | 42 | 140 (≈ 253 µM) | 120 (≈ 217 µM) | 71 (≈ 128 µM) | 6
21 | CCO[C@@H]1CN(c2nc(-c3cccc(C)c3OCc3cc4c(c(OC)c3)CN(C3CCOCC3)CC4)cs2)CC[C@@H]1C(=O)O [Compound 228] | <24 | 148 (≈ 239 µM) | 114 (≈ 183 µM) | 107 (≈ 172 µM) | 6
22 | CCO[C@H]1CN(c2nc(-c3cccc(C)c3OCc3cc4c(c(OC)c3)CN(C3CCOCC3)CC4)cs2)CC[C@H]1C(=O)O [Compound 232] | <24 | 142 (≈ 229 µM) | 131 (≈ 211 µM) | 131 (≈ 211 µM) | 330
23 | CCc1cc(COc2c(C)cccc2-c2cccc(N3C[C@@H]4C[C@]4(C(=O)O)[C@H]3COC)n2)cc2c1CN(CC1COCCO1)CC2 (stereo partly drawn) [Compound 56] | <24 | 140 (≈ 223 µM) | 120 (≈ 191 µM) | 88 (≈ 140 µM) | 26
24 | Cc1c(COc2ccccc2-c2ccnc(N3CC[C@@]4(C(=O)O)C[C@H]4C3)n2)ccc2c1CCN(C1CCOCC1)C2 [Compound 185] | 33 | 100 (≈ 180 µM) | 43 (≈ 77.5 µM) | 42 (≈ 75.7 µM) | 21
25 | COC[C@H]1N(c2cccc(-c3cccc(C)c3OCc3cc(C)c4c(c3F)CCN(C3CCOCC3)C4)n2)C[C@@H]2C[C@@]21C(=O)O [Compound 59] | <24 | 120 (≈ 195 µM) | 99 (≈ 161 µM) | 74 (≈ 120 µM) | 8
26 | Cc1ccc(OCc2ccc3c(c2C)CCN(C2COC2)C3)c(-c2cccc(N3C[C@@H]4C[C@]4(C(=O)O)C3)n2)c1 [Compound 36] | <24 | 100 (≈ 190 µM) | 84 (≈ 160 µM) | 48 (≈ 91.3 µM) | 120
27 | Cc1ccc(OCc2ccc3c(c2)CCCN(C2CCOCC2)C3)c(-c2csc(N3CC[C@@]4(C(=O)O)C[C@H]4C3)n2)c1 [Compound 199] | 46 | 134 (≈ 234 µM) | 51.6 (≈ 89.9 µM) | 23.8 (≈ 41.5 µM) | 145
28 | COc1ccc(OCc2ccc3c(c2C)CCN(C2COC2)C3)c(-c2csc(N3CC[C@@]4(C(=O)O)C[C@H]4C3)n2)c1 [Compound 201] | <24 | 132 (≈ 235 µM) | 10.1 (≈ 18 µM) | 19.5 (≈ 34.7 µM) | 40
29 | Cc1cc(COc2c(C)cccc2-c2csc(N3C[C@H]4C[C@@]4(C(=O)O)[C@@H]3C)n2)cc2c1CN(C1COC1)CC2 [Compound 158] | <24 | 94 (≈ 172 µM) | 53 (≈ 97.1 µM) | 65 (≈ 119 µM) | 37
30 | COC[C@H]1N(c2cccc(-c3cccc(C)c3OCc3cnc4c(c3)CCN(C3CCOCC3)CC4)n2)C[C@@H]2C[C@@]21C(=O)O [Compound 317] | <24 | 158 (≈ 263 µM) | 152 (≈ 253 µM) | 139 (≈ 232 µM) | 245
